Converted amounts (≈) assume the structure as drawn.
Assays:
[1] = target: Hsp90 Nuclear Binding Domain (NBD) (Aspergillus fumigatus, UniProt P40292); experiment: Surface Plasmon Resonance (SPR) binding, A. fumigatus Hsp90 NBD; conditions: biotinylated Hsp90 NBD on streptavidin chip, 25° C., 1:1 binding model; NB undefined
Description: (§1) Surface Plasmon Resonance (SPR) Experiments. SPR experiments were performed on a Biacore S200 instrument at 25° C. Biotinylated Hsp90 Nuclear Binding Domain (NBD) was diluted to 40 μg/mL and immobilized on a streptavidin chip (Sensor Chip SA, GE Healthcare) at a density of 2000-2500 response units (RU) on the biosensor surface.
(§2) Recombinant Hsp90 NBDs were expressed and purified as previously described (Whitesell et al., Nat Commun 10, 402 (2019)) with the following modification; Hsp90 NBD expression constructs were modified to encode a C-terminal AviTag for site-specific on-column biotinylation with a BirA biotin-ligase kit (Avidity LLC; BirA-500). Stock protein solutions in 50% glycerol were stored at −20° C. until dilution into relevant buffers. Binding experiments were done in HBS-P (0.01 M HEPES, pH 7.4, 0.15 M NaCl, 0.005% v/v surfactant P20, GE Healthcare) with 2% DMSO at flow rate of 40 μL/min. Test compounds (dilution series) were injected with a 60 s association time and 600 s dissociation time. Resulting sensorgrams were analyzed with a fit to a 1:1 binding model, using BIA evaluation software.

[2] = target: Hsp90 Nuclear Binding Domain (NBD) (Candida albicans (strain SC5314 / ATCC MYA-2876) (Yeast), UniProt P46598); experiment: Surface Plasmon Resonance (SPR) binding, C. albicans Hsp90 NBD; conditions: biotinylated Hsp90 NBD on streptavidin chip, 25° C., 1:1 binding model
Description: as §1, §2

CaCl2 = experiment: Antifungal sensitivity testing (broth microdilution MIC); format: cell-based; conditions: Table 4; 96-well broth microdilution
Description: Antifungal Sensitivity Testing. Minimum inhibitory concentrations (MICs) were determined in flat bottom, 96-well plate format using a modified broth microdilution protocol as previously described (Singh et al., PLoS Pathog. 5, e1000532 (2009); LaFayette et al., PLoS Pathog. 6, 79-80 (2010)). Compounds were formulated in dimethyl sulfoxide (DMSO, Sigma-Aldrich Co.); fluconazole was dissolved in sterile ddH2O. Each compound was tested in duplicate in at least two independent experiments. To test for fungicidal activity, cultures from MIC plates were spotted on YPD agar plates using a spotter (Frogger, V&P Scientific, Inc.). Plates were photographed after 24 h of incubation at 30° C.

Chain of Hsp90 Nuclear Binding Domain (NBD) (Candida albicans (strain SC5314 / ATCC MYA-2876) (Yeast), UniProt P46598) (P46598 1-218 limits assumed): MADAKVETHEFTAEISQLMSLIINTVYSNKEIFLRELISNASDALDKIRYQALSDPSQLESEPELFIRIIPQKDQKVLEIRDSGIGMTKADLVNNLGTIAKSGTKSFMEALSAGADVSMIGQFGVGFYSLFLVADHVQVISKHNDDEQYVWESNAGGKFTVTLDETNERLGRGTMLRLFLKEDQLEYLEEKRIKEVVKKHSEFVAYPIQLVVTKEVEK
Chain of Hsp90 Nuclear Binding Domain (NBD) (Aspergillus fumigatus, UniProt P40292) (P40292 whole entry, looked up, the tested form may be a part): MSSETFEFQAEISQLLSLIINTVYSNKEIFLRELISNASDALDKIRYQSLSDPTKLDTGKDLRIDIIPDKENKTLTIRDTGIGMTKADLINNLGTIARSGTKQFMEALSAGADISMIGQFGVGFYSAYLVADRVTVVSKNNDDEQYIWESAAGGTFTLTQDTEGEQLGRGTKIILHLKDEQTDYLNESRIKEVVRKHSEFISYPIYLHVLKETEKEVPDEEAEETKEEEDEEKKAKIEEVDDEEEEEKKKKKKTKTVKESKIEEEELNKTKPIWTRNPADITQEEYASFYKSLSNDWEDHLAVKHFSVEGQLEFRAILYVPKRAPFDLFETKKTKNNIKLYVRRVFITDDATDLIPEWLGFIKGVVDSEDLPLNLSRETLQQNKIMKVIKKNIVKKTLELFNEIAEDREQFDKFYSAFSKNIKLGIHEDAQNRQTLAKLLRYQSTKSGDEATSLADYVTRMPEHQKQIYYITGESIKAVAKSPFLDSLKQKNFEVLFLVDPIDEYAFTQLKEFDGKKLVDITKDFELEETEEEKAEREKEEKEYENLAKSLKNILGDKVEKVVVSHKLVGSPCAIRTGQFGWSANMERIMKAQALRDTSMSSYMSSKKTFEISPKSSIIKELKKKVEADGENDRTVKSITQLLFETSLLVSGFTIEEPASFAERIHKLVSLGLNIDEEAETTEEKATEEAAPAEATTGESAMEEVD

| SMILES | Kd [1] [nM] | Kd [2] [nM] | MIC50 (CaCl2) [µM] |
| --- | --- | --- | --- |
| Nc1nc2sc(C(=O)NC3CCN(C[C@](O)(Cn4cncn4)c4ccc(F)cc4F)CC3)cc2n(-c2ccc3c(c2)N(c2ccccc2)CCO3)c1=O [Compound I-7, (S)-3-amino-N-(1-(2-(2,4-difluorophenyl)-2-hydroxy-3-(1H-1,2,4-triazol-1-yl)propyl)piperidin-4-yl)-2-oxo-1-(4-phenyl-3,4-dihydro-2H-benzo[b][1,4]oxazin-6-yl)-1,2-dihydrothieno[2,3-b]pyrazine-6-carboxamide] | 76.4 | 22.8 | 0.75 (≈ 0.555 µg/mL) |
| Nc1nc2sc(C(=O)Nc3ccc(N4CCN(CC(O)(Cn5cncn5)c5ccc(F)cc5F)CC4)cc3)cc2n(-c2ccc3c(c2)N(c2ccccc2)CCO3)c1=O (stereo not shown) [Compound I-8, 3-amino-N-(4-(4-(2-(2,4-difluorophenyl)-2-hydroxy-3-(1H-1,2,4-triazol-1-yl)propyl)piperazin-1-yl)phenyl)-2-oxo-1-(4-phenyl-3,4-dihydro-2H-benzo[b][1,4]oxazin-6-yl)-1,2-dihydrothieno[2,3-b]pyrazine-6-carboxamide] |  |  | 0.75 (≈ 0.613 µg/mL) |
| Nc1nc2sc(C(=O)Nc3ccc(CN4CCN(CC(O)(Cn5cncn5)c5ccc(F)cc5F)CC4)cc3)cc2n(-c2ccc3c(c2)N(c2ccccc2)CCO3)c1=O (stereo not shown) [Compound I-9, 3-amino-N-(4-((4-(2-(2,4-difluorophenyl)-2-hydroxy-3-(1H-1,2,4-triazol-1-yl)propyl)piperazin-1-yl)methyl)phenyl)-2-oxo-1-(4-phenyl-3,4-dihydro-2H-benzo[b][1,4]oxazin-6-yl)-1,2-dihydrothieno[2,3-b]pyrazine-6-carboxamide] | 3870 | 136 | 10 (≈ 8.31 µg/mL) |
| Nc1nc2sc(C(=O)NC3CCN(CC(O)(Cn4cncn4)c4ccc(F)cc4F)CC3)cc2n(-c2ccc3ccn(-c4ccccc4)c3c2)c1=O (stereo not shown) [Compound I-13, 3-amino-N-(1-(2-(2,4-difluorophenyl)-2-hydroxy-3-(1H-1,2,4-triazol-1-yl)propyl)piperidin-4-yl)-2-oxo-1-(1-phenyl-1H-indol-6-yl)-1,2-dihydrothieno[2,3-b]pyrazine-6-carboxamide] | 75.1 | 50.4 | 0.37 (≈ 0.267 µg/mL) |
| Nc1nc2sc(C(=O)N[C@H]3CCN(CC(O)(Cn4cncn4)c4ccc(F)cc4F)C3)cc2n(-c2ccc3c(c2)N(c2ccccc2)CCO3)c1=O (stereo partly drawn) [Compound I-14, 3-amino-N-((3S)-1-(2-(2,4-difluorophenyl)-2-hydroxy-3-(1H-1,2,4-triazol-1-yl)propyl)pyrrolidin-3-yl)-2-oxo-1-(4-phenyl-3,4-dihydro-2H-benzo[b][1,4]oxazin-6-yl)-1,2-dihydrothieno[2,3-b]pyrazine-6-carboxamide] | 146 | 23.4 | 25 (≈ 18.1 µg/mL) |
| Nc1nc2sc(C(=O)NCCN3CCN(CC(O)(Cn4cncn4)c4ccc(F)cc4F)CC3)cc2n(-c2ccc3c(c2)N(c2ccccc2)CCO3)c1=O (stereo not shown) [Compound I-15, 3-amino-N-(2-(4-(2-(2,4-difluorophenyl)-2-hydroxy-3-(1H-1,2,4-triazol-1-yl)propyl)piperazin-1-yl)ethyl)-2-oxo-1-(4-phenyl-3,4-dihydro-2H-benzo[b][1,4]oxazin-6-yl)-1,2-dihydrothieno[2,3-b]pyrazine-6-carboxamide] | 188 | 30.4 | 2.75 (≈ 2.11 µg/mL) |
| Nc1nc2sc(C(=O)NC3CCN(CC(O)(Cn4cncn4)c4ccc(F)cc4F)CC3)cc2n(-c2ccc3c(c2)N(c2ccccc2)CCC3)c1=O (stereo not shown) [Compound I-16, 3-amino-N-(1-(2-(2,4-difluorophenyl)-2-hydroxy-3-(1H-1,2,4-triazol-1-yl)propyl)piperidin-4-yl)-2-oxo-1-(1-phenyl-1,2,3,4-tetrahydroquinolin-7-yl)-1,2-dihydrothieno[2,3-b]pyrazine-6-carboxamide] | 140 | 16 | 0.6 (≈ 0.443 µg/mL) |
| Nc1nc2scc(C(=O)N[C@H]3CCN(CC(O)(Cn4cncn4)c4ccc(F)cc4F)C3)c2n(-c2ccc3c(c2)N(c2ccccc2)CCO3)c1=O (stereo partly drawn) [Compound I-17, 3-amino-N-((3S)-1-(2-(2,4-difluorophenyl)-2-hydroxy-3-(1H-1,2,4-triazol-1-yl)propyl)pyrrolidin-3-yl)-2-oxo-1-(4-phenyl-3,4-dihydro-2H-benzo[b][1,4]oxazin-6-yl)-1,2-dihydrothieno[2,3-b]pyrazine-7-carboxamide] | 2700 | 2670 | 45 (≈ 32.7 µg/mL) |
| Cc1ccc(-n2c(=O)c(N)nc3sc(C(=O)NC4CCN(C[C@](O)(Cn5cncn5)c5ccc(F)cc5F)CC4)cc32)cc1Oc1ccccc1 [Compound I-25, (S)-3-amino-N-(1-(2-(2,4-difluorophenyl)-2-hydroxy-3-(1H-1,2,4-triazol-1-yl)propyl)piperidin-4-yl)-1-(4-methyl-3-phenoxyphenyl)-2-oxo-1,2-dihydrothieno[2,3-b]pyrazine-6-carboxamide] | 299 | 171 | 0.5 (≈ 0.356 µg/mL) |
| Nc1nc2sc(C(=O)NC3CCN(CCC(O)(Cn4cncn4)c4ccc(F)cc4F)CC3)cc2n(-c2ccc3c(c2)N(c2ccccc2)CCO3)c1=O (stereo not shown) [Compound I-28, 3-amino-N-(1-(3-(2,4-difluorophenyl)-3-hydroxy-4-(1H-1,2,4-triazol-1-yl)butyl)piperidin-4-yl)-2-oxo-1-(4-phenyl-3,4-dihydro-2H-benzo[b][1,4]oxazin-6-yl)-1,2-dihydrothieno[2,3-b]pyrazine-6-carboxamide] | 159 | 13.3 | 6 (≈ 4.52 µg/mL) |
| Nc1nc2scc(C(=O)NC3CCN(C[C@](O)(Cn4cncn4)c4ccc(F)cc4F)CC3)c2n(-c2ccc3c(c2)N(c2ccccc2)CCO3)c1=O [Compound I-35, (S)-3-amino-N-(1-(2-(2,4-difluorophenyl)-2-hydroxy-3-(1H-1,2,4-triazol-1-yl)propyl)piperidin-4-yl)-2-oxo-1-(4-phenyl-3,4-dihydro-2H-benzo[b][1,4]oxazin-6-yl)-1,2-dihydrothieno[2,3-b]pyrazine-7-carboxamide] | 1840 | 1950 | 25 (≈ 18.5 µg/mL) |
| Nc1nc2sc(C(=O)Nc3ccc(COC4CCN(CC(O)(Cn5cncn5)c5ccc(F)cc5F)CC4)cc3)cc2n(-c2ccc3c(c2)N(c2ccccc2)CCO3)c1=O (stereo not shown) [Compound I-46, 3-amino-N-(4-(((1-(2-(2,4-difluorophenyl)-2-hydroxy-3-(1H-1,2,4-triazol-1-yl)propyl)piperidin-4-yl)oxy)methyl)phenyl)-2-oxo-1-(4-phenyl-3,4-dihydro-2H-benzo[b][1,4]oxazin-6-yl)-1,2-dihydrothieno[2,3-b]pyrazine-6-carboxamide] |  |  | 0.85 (≈ 0.719 µg/mL) |
| Nc1nc2sc(C(=O)NC3CCCN(CC(O)(Cn4cncn4)c4ccc(F)cc4F)CC3)cc2n(-c2ccc3c(c2)N(c2ccccc2)CCO3)c1=O (stereo not shown) [Compound I-50, 3-amino-N-(1-(2-(2,4-difluorophenyl)-2-hydroxy-3-(1H-1,2,4-triazol-1-yl)propyl)azepan-4-yl)-2-oxo-1-(4-phenyl-3,4-dihydro-2H-benzo[b][1,4]oxazin-6-yl)-1,2-dihydrothieno[2,3-b]pyrazine-6-carboxamide] |  | 42.7 | 3.25 (≈ 2.45 µg/mL) |
| Nc1nc2sc(-c3cn(C4CCN(CC(O)(Cn5cncn5)c5ccc(F)cc5F)CC4)nn3)cc2n(-c2ccc3c(c2)N(c2ccccc2)CCO3)c1=O (stereo not shown) [Compound I-51, 3-amino-6-(1-(1-(2-(2,4-difluorophenyl)-2-hydroxy-3-(1H-1,2,4-triazol-1-yl)propyl)piperidin-4-yl)-1H-1,2,3-triazol-4-yl)-1-(4-phenyl-3,4-dihydro-2H-benzo[b][1,4]oxazin-6-yl)thieno[2,3-b]pyrazin-2(1H)-one] | 14.6 | 3 | 1 (≈ 0.764 µg/mL) |
| Nc1nc2sc(CNC3[C@@H]4CC[C@H]3CN(CC(O)(Cn3cncn3)c3ccc(F)cc3F)C4)cc2n(-c2ccc3c(c2)N(c2ccccc2)CCO3)c1=O (stereo partly drawn) [Compound I-116, 3-amino-6-((((1R,5S)-3-(2-(2,4-difluorophenyl)-2-hydroxy-3-(1H-1,2,4-triazol-1-yl)propyl)-3-azabicyclo[3.2.1]octan-8-yl)amino)methyl)-1-(4-phenyl-3,4-dihydro-2H-benzo[b][1,4]oxazin-6-yl)thieno[2,3-b]pyrazin-2(1H)-one] |  | 1350 | 3 (≈ 2.26 µg/mL) |
| CN(Cc1cc2c(nc(N)c(=O)n2-c2ccc3c(c2)N(c2ccccc2)CCO3)s1)C1CCN(CC(O)(Cn2cncn2)c2ccc(F)cc2F)CC1 (stereo not shown) [Compound I-119, 3-amino-6-(((1-(2-(2,4-difluorophenyl)-2-hydroxy-3-(1H-1,2,4-triazol-1-yl)propyl)piperidin-4-yl)(methyl)amino)methyl)-1-(4-phenyl-3,4-dihydro-2H-benzo[b][1,4]oxazin-6-yl)thieno[2,3-b]pyrazin-2(1H)-one] |  |  | 6.5 (≈ 4.81 µg/mL) |
